The term solubility denotes how much of the substance goes into solution per volume. Usually solubility (thermodynamic) stands for solubility found after equilibrating the solid with the medium.

2 compounds from ChEMBL document CHEMBL3612013, “Cyclodextrin complexation highly enhances efficacy of arylsulfonylureido benzenesulfonamide carbonic anhydrase inhibitors as a topical antiglaucoma agents” (Bioorg Med Chem, 2015) can be followed below.

Values after ≈ are worked out from the molar mass of the structure shown.

Data set [1] can be described thus: Aqueous solubility in pH 7.4 PBS in presence of sulfobutyl-ether-beta cyclodextrin incubated for 48 hrs at 25 degC by spectrophotometry. Format: physicochemical. The settings on record: PBS with sulfobutyl-ether-beta cyclodextrin.
Data set [2] is described as follows: Aqueous solubility in pH 7.4 PBS in presence of hydroxypropyl-beta cyclodextrin incubated for 48 hrs at 25 degC by spectrophotometry. Format: physicochemical. The settings on record: PBS with hydroxypropyl-beta cyclodextrin.
Data set [3] in a line: Aqueous solubility in pH 7.4 PBS in presence of gamma-cyclodextrin incubated for 48 hrs at 25 degC by spectrophotometry. Format: physicochemical. The settings on record: PBS with gamma-cyclodextrin.
Data set [4] is described as follows: Aqueous solubility in pH 7.4 PBS in presence of hydroxyethyl-beta cyclodextrin incubated for 48 hrs at 25 degC by spectrophotometry. To be noted: PBS with hydroxyethyl-beta cyclodextrin. Format: physicochemical.
For data set [5], the system named is Oryctolagus cuniculus. In words: Antiglaucoma activity in New Zealand albino rabbit model of carbomer-induced hypertensive eye glaucoma assessed as intraocular pressure at 0.37% using compound complexed with cyclodextrin directly instilled into conjunctive pocket measured 24 hrs post drug administration (reference value: 45 to 50 mmHg). Format: functional.
Data set [6] is described as follows: Aqueous solubility in pH 7.4 PBS in presence of hydroxypropyl-alpha cyclodextrin incubated for 48 hrs at 25 degC by spectrophotometry. Format: physicochemical. To be noted: PBS with hydroxypropyl-alpha cyclodextrin.
Data set [7] concerns Oryctolagus cuniculus. In words: Toxicity in New Zealand albino rabbit model of carbomer-induced hypertensive eye glaucoma assessed as induction of eye irritation at 0.37% using compound complexed with cyclodextrin directly instilled into conjunctive pocket measured 24 hrs post drug administration. Format: organism-based. To be noted: in vivo, topical_or_ocular.
Data set [8] deals with Oryctolagus cuniculus. In words: Antiglaucoma activity in New Zealand albino rabbit model of carbomer-induced hypertensive eye glaucoma assessed as intraocular pressure at 0.37% using compound complexed with cyclodextrin directly instilled into conjunctive pocket measured 1 hr post drug administration (reference value: 45 to 50 mmHg). Format: functional.
A short description of data set [9]: Equilibrium solubility in pH 7.4 PBS in presence of hydroxypropyl-gamma cyclodextrin incubated for 48 hrs at 25 degC by spectrophotometry. Format: physicochemical. To be noted: PBS with hydroxypropyl-gamma cyclodextrin.
Data set [10] in a line: Aqueous solubility in pH 7.4 PBS incubated for 48 hrs at 25 degC by spectrophotometry. Format: physicochemical.
Data set [11] deals with Oryctolagus cuniculus. The experiment in a line: Toxicity in New Zealand albino rabbit model of carbomer-induced hypertensive eye glaucoma assessed as induction of eye irritation at 2% directly instilled into conjunctive pocket measured 24 hrs post drug administration. Format: organism-based. To be noted: in vivo, topical_or_ocular.
The subject of data set [12] is Oryctolagus cuniculus. In words: Antiglaucoma activity in New Zealand albino rabbit model of carbomer-induced hypertensive eye glaucoma assessed as time duration showing reduction in intraocular pressure at 0.37% using compound complexed with cyclodextrin directly instilled into conjunctive pocket measured 24 hrs post drug administration. Format: functional.
Data set [13] can be described thus: Aqueous solubility in pH 7.4 PBS in presence of hydroxypropyl-gamma cyclodextrin incubated for 48 hrs at 25 degC by spectrophotometry. The settings on record: PBS with hydroxypropyl-gamma cyclodextrin. Format: physicochemical.
Data set [14] is described as follows: Stability of the compound. Format: physicochemical.
The subject of data set [15] is Oryctolagus cuniculus. In words: Antiglaucoma activity in New Zealand albino rabbit model of carbomer-induced hypertensive eye glaucoma assessed as intraocular pressure at 0.07% using compound complexed with cyclodextrin directly instilled into conjunctive pocket measured 24 hrs post drug administration (reference value: 45 to 50 mmHg). Format: functional.
Data set [16] deals with Oryctolagus cuniculus. In words: Antiglaucoma activity in New Zealand albino rabbit model of carbomer-induced hypertensive eye glaucoma assessed as intraocular pressure at 0.07% using compound complexed with cyclodextrin directly instilled into conjunctive pocket measured 1 hr post drug administration (reference value: 45 to 50 mmHg). Format: functional.
Data set [17] has as its system Oryctolagus cuniculus. In words: Toxicity in New Zealand albino rabbit model of carbomer-induced hypertensive eye glaucoma assessed as induction of eye irritation at 0.07% using compound complexed with cyclodextrin directly instilled into conjunctive pocket measured 24 hrs post drug administration. Format: organism-based. The settings on record: in vivo, topical_or_ocular.

The subject of data set [18] is Oryctolagus cuniculus. In words: Antiglaucoma activity in New Zealand albino rabbit model of carbomer-induced hypertensive eye glaucoma assessed as time duration showing reduction in intraocular pressure at 0.07% using compound complexed with cyclodextrin directly instilled into conjunctive pocket measured 24 hrs post drug administration. Format: functional.

As for `NS(=O)(=O)c1ccc(CCNC(=O)NS(=O)(=O)c2ccc(F)cc2)cc1`, the solubility at 48 h in [1] turned out to be 1810 µg/mL; in data set [2] it was 2170 µg/mL; in [3], 2260 µg/mL; in data set [4] it was 2240 µg/mL; in data set [6], 1580 µg/mL; in data set [10] it was 972 µg/mL (≈ 2420 µM). Also, the solubility at 48 h in data set [13] was 2330 µg/mL. Moreover, the Activity in data set [5] is recorded as 35 mmHg; in data set [7], “Toxic”; in [8], 36 mmHg; in data set [11], “Toxic”. In data set [9], the solubility (thermodynamic) at 48 h is 3700 µg/mL. For the same compound, the Time in [12] is 20 h. For the same compound, the K in data set [14] turned out to be 76.3 M⁻¹.
For `Cc1ccc(S(=O)(=O)NC(=O)NCCc2ccc(S(N)(=O)=O)cc2)cc1`, the Activity in data set [15] is given as 35 mmHg; in [16], 36 mmHg; in [11], “Toxic”; in data set [17], “Toxic”. Moreover, the solubility at 48 h in [1] came to 174 µg/mL; in data set [2], 212 µg/mL; in data set [3], 232 µg/mL; in [4] it was 203 µg/mL; in data set [6], 141 µg/mL; in data set [10] it was 87 µg/mL (≈ 219 µM). In addition, in [13], the solubility at 48 h was 278 µg/mL. Moreover, the thermodynamic solubility at 48 h in data set [9] is 700 µg/mL. Moreover, in [14], the K was determined as 143.75 M⁻¹. Moreover, the Time in [18] was determined as 20 h.
